The subject of one test is Raw 264.7 cells. Kind of test: LN (Laminin 421)-induced immune cell migration, Transwell. The test is classed as cell-based. The note with it: Mus musculus, RAW264.7; 3 µM compound, LN (Laminin 421 1 µg/ml), 24 hours, % inhibition compared to control group; read-out: Migration inhibitor % (3uM). The protocol:
Cell migration was assessed based on the method described in the prior literature (Park, S. G. et al. Human lysyl-tRNA synthetase is secreted to trigger proinflammatory response. Proceedings of the National Academy of Sciences, 2005, 102.18: 6356-6361.). The specific experimental method is as follows. A Transwell (Corning#3421-5µm pore) was coated with gelatin (0.5mg/ml), and then Raw 264.7 cells (1 x 10^5 cells/well) were seeded in the upper chamber. Serum-free medium (Serum Free DMEM, 500 µl) containing LN (Laminin 421 1 µg/ml) was added to the lower chamber. Each compound was treated at a concentration of 3µM in the upper chamber. After 24 hours, the cells were fixed with 70% methanol for 30 minutes and stained with 50% hematoxylin for 30 minutes. Non-migrating cells on the upper side of the membrane were removed with a cotton swab, and the membrane was mounted on a slide. Migrating cells on the lower side of the membrane were observed under a high-power microscope, and the number of cells was measured from the obtained images and expressed as the inhibition rate (% inhibition) compared to the control group.

In a further test the target is T1, KARS1 and 37LR (Homo sapiens, UniProt Q15046).
T1 construct: KARS1 (1-207aa)
Kind of test: Cell-free ELISA of KARS1 and 37LR (laminin receptor) binding. The settings on record: 10 µM compound, 1 hour, plate coated with KARS1 (1-207aa), LRF. The protocol:
Next, based on the mechanism of action, a cell-free ELISA analysis was conducted to select compounds with high inhibitory activity on the binding of KARS1 and LR (laminin receptor).

The subject of a further test is Raw264.7 cells. Kind of test: KARS1-induced trans-migration assay. It counts as cell-based, mouse. The note with it: for inhibition at 1 µM: 1 µM compound, read-out: KARS1-induced Raw264.7 cell migration (% inhibition, 1uM). As to the method:
C0001 inhibits the binding of KARS1 and 67LR, thereby blocking the migration of monocytes/macrophages and suppressing inflammation. Accordingly, a trans-migration assay using mouse macrophages (Raw264.7) was conducted to preliminarily screen drugs that inhibit the migration of monocytes/macrophages.
Based on this, when KARS1 protein was directly treated externally instead of LN, the trans-migration of Raw264.7 was induced, and the cell migration inhibitory effect of the KARS1 inhibitor C0001 was confirmed. It was verified that C0001, which specifically binds to KARS1, can inhibit cell migration by binding to extracellular KARS1, in addition to the mechanism of inhibiting cell membrane migration of KARS1 induced by laminin and its binding to 67LR, thereby enabling this analysis to be used as a direct method for evaluating in vitro activity against KARS1.
Next, preliminary candidate substances with high inhibitory activity at 1 µM were treated at concentrations of 0.1~4 µM for analysis.

A word on the EC50: it is the concentration that produces a half-maximal response.

T1 sequence (Q15046 1-207): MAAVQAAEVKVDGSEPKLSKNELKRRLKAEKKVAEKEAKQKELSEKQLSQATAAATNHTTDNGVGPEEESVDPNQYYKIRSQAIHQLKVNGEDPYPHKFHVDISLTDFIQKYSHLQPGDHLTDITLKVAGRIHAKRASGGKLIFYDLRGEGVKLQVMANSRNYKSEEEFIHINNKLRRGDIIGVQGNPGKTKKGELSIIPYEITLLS

As to `COc1ccc(CCN(Cc2ccc(C#CC(=O)O)cc2)c2nc3cccnc3o2)cc1` [Compound 44, 3-(4-(((4-methoxyphenethyl)(oxazolo[5,4-b]pyridin-2-yl)amino)-methyl)phenyl)propiolic acid], the inhibition at 3 µM in the test on Raw 264.7 cells is 1.1%.

Regarding `COc1ccc(CCN(Cc2ccc(N3CC(C(=O)O)C3)cc2)c2nc3cccc(F)c3s2)cc1` [Compound 39, 1-(4-(((7-fluorobenzo[d]thiazol-2-yl)(4-methoxyphenethyl)amino)-methyl)phenyl)azetidine-3-carboxylic acid], the inhibition at 10 µM at KARS1 and 37LR was determined as 37.5%. The inhibition at 1 µM in the test with Raw264.7 cells (Mus musculus, RAW264.7) stood at 97.4%. The inhibition at 3 µM with Raw 264.7 cells stood at 51.9%.

`COc1ccc(CCN(Cc2ccc(C#CC(=O)O)cc2)c2ncc3ccn(C)c3n2)cc1` [Compound 12, 3-(4-(((4-methoxyphenethyl)(7-methyl-7H-pyrrolo[2,3-d]pyrimidin-2-yl)amino)methyl)phenyl)propiolic acid]: on KARS1 and 37LR, the inhibition at 10 µM came out at 57.9%. Besides, the inhibition at 1 µM with Raw264.7 cells (Mus musculus, RAW264.7) came out at 55.1%. For the same compound, in the test on Raw 264.7 cells, the inhibition at 3 µM amounted to 43%.

Regarding `COc1ccc(CCN(Cc2ccc(C3(C(=O)O)CCC3)cc2)c2nc3cccc(F)c3s2)cc1` [Compound 36, 1-(4-(((7-fluorobenzo[d]thiazol-2-yl)(4-methoxyphenethyl)amino)-methyl)phenyl)cyclobutane-1-carboxylic acid], the inhibition at 1 µM in the test with Raw264.7 cells (Mus musculus, RAW264.7) turned out to be 96.8%. In addition, the inhibition at 3 µM with Raw 264.7 cells is 21.8%.

Turning to `O=C(O)[C@H]1CCN(c2ccc(CN(CCn3ccccc3=O)c3nc4cccc(F)c4s3)cc2)C1` [Compound 49, (S)-1-(4-(((7-fluorobenzo[d]thiazol-2-yl)(2-(2-oxopyridin-1(2H)-yl)ethyl)amino)methyl)phenyl)pyrrolidine-3-carboxylic acid], the inhibition at 1 µM in the test on Raw264.7 cells (Mus musculus, RAW264.7) is 34.8%.

Regarding `COc1ccc(CCN(Cc2ccc(C#CC(=O)O)cc2)c2nc3ccc(=O)[nH]c3s2)cc1` [Compound 45, 3-(4-(((4-methoxyphenethyl)(5-oxo-4,5-dihydrothiazolo[5,4-b]pyridin-2-yl)amino)methyl)phenyl)propiolic acid], the inhibition at 1 µM with Raw264.7 cells (Mus musculus, RAW264.7) was determined as 39.8%. For the same compound, the inhibition at 3 µM with Raw 264.7 cells is 7.8%.

On to `COc1ccc(CCN(Cc2ccc(-c3ccccc3)cc2)c2nc3cccnc3s2)cc1` [Compound 1, N-([1,1'-biphenyl]-4-ylmethyl)-N-(4-methoxyphenethyl)thiazolo[5,4-b]pyridin-2-amine], for which the inhibition at 10 µM on KARS1 and 37LR was -6%. The inhibition at 1 µM in the test with Raw264.7 cells (Mus musculus, RAW264.7) came to 19.8%. Also, the inhibition at 3 µM in the test on Raw 264.7 cells was 8.8%.

`COc1ccc(CCN(Cc2ccc3c(c2)CN(S(N)(=O)=O)C3)c2nc3cccc(F)c3s2)cc1` [Compound 31, 5-(((7-fluorobenzo[d]thiazol-2-yl)(4-methoxyphenethyl)amino)-methyl)isoindoline-2-sulfonamide]: the inhibition at 1 µM in the test with Raw264.7 cells (Mus musculus, RAW264.7) came out at 28.3%. Moreover, the inhibition at 3 µM in the test with Raw 264.7 cells amounted to 72.8%.

With `COc1ccc(CCN(Cc2ccc3c(c2)CN(C(N)=O)C3)c2nc3cccc(F)c3s2)cc1` [Compound 30, 5-(((7-fluorobenzo[d]thiazol-2-yl)(4-methoxyphenethyl)amino)-methyl)isoindoline-2-carboxamide], the inhibition at 10 µM at KARS1 and 37LR worked out at 64%. The inhibition at 1 µM in the test with Raw264.7 cells (Mus musculus, RAW264.7) is 3.2%. Besides, the inhibition at 3 µM with Raw 264.7 cells turned out to be 37.4%.

Regarding `COc1ccc(CCN(Cc2ccc(N3CCC[C@H]3C(=O)O)cc2)c2nc3cccc(F)c3s2)cc1` [Compound 19, (4-(((7-fluorobenzo[d]thiazol-2-yl)(4-methoxyphenethyl)amino)-methyl)phenyl)-L-proline], the inhibition at 10 µM on KARS1 and 37LR turned out to be 75.8%. For the same compound, the inhibition at 1 µM in the test with Raw264.7 cells (Mus musculus, RAW264.7) is 69%. For the same compound, in the test with Raw 264.7 cells, the inhibition at 3 µM came out at 15%.

Regarding `CCN(CC)C(=O)C#Cc1ccc(CN(CCc2ccc(OC)cc2)c2nc3cccc(F)c3s2)cc1` [Compound 3, N,N-diethyl-3-(4-(((7-fluorobenzo[d]thiazol-2-yl)(4-methoxyphenethyl)amino)methyl)phenyl)propiolamide], the inhibition at 10 µM on KARS1 and 37LR turned out to be 4.7%. The inhibition at 1 µM in the test on Raw264.7 cells (Mus musculus, RAW264.7) came to 22.6%. In the test on Raw 264.7 cells, the inhibition at 3 µM stood at 0%.

As to `COc1ccc(CCN(Cc2ccc(-c3ccc(C(=O)O)o3)cc2)c2nc3cccc(F)c3s2)cc1` [Compound 26, 5-(4-(((7-fluorobenzo[d]thiazol-2-yl)(4-methoxyphenethyl)amino)-methyl)phenyl)furan-2-carboxylic acid], the inhibition at 10 µM on KARS1 and 37LR came out at 78.4%. In addition, in the test with Raw264.7 cells (Mus musculus, RAW264.7), the inhibition at 1 µM turned out to be 80.6%. The inhibition at 3 µM in the test with Raw 264.7 cells worked out at 48%.

Consider `COc1ccc(CCN(Cc2ccc(N3CC[C@H](C(=O)O)C3)cc2)c2nc3ccccc3o2)cc1` [Compound 38, (S)-1-(4-((benzo[d]oxazol-2-yl(4-methoxyphenethyl)amino)methyl)-phenyl)pyrrolidine-3-carboxylic acid], for which the inhibition at 1 µM in the test on Raw264.7 cells (Mus musculus, RAW264.7) is 40.4%. Also, in the test on Raw 264.7 cells, the inhibition at 3 µM came out at 15.3%.

`COc1ccc(CCNc2ncc3ccn(C)c3n2)cc1` [Compound 6, N-(4-methoxyphenethyl)-7-methyl-7H-pyrrolo[2,3-d]pyrimidin-2-amine]: at KARS1 and 37LR, the inhibition at 10 µM was determined as 14.8%. Besides, in the test on Raw264.7 cells (Mus musculus, RAW264.7), the inhibition at 1 µM amounted to 23.5%. Also, the inhibition at 3 µM in the test on Raw 264.7 cells was found to be 5.1%.

`COc1ccc(CCN(Cc2ccc(-n3cc(C(=O)O)cn3)cc2)c2nc3cccc(F)c3s2)cc1` [Compound 47, 1-(4-(((7-fluorobenzo[d]thiazol-2-yl)(4-methoxyphenethyl)amino)-methyl)phenyl)-1H-pyrazole-4-carboxylic acid]: the “times higher activity compared to C0001” value in the test with Raw264.7 cells (EC50, KARS1-induced cell migration) is “approximately 10 times”. Also, the inhibition at 1 µM in the test with Raw264.7 cells (Mus musculus, RAW264.7) stood at 99.7%. In the test on Raw264.7 cells (Mus musculus, RAW264.7, KARS1-induced cell migration, 0.1~4 µM), this compound registered an EC50 of 80 nM.

Regarding `COc1ccc(CCN(Cc2ccc(N3CC[C@@H](C(=O)O)C3)cc2)c2nc3ccccc3o2)cc1` [Compound 37, (R)-1-(4-((benzo[d]oxazol-2-yl(4-methoxyphenethyl)amino)methyl)-phenyl)pyrrolidine-3-carboxylic acid], in the test on Raw264.7 cells (Mus musculus, RAW264.7), the inhibition at 1 µM was 50.6%. In addition, the inhibition at 3 µM with Raw 264.7 cells turned out to be 19.3%.

As to `COc1ccc(CCN(Cc2cccc(C#C[Si](C)(C)C)c2)c2nc3cccc(F)c3s2)cc1` [Compound 8, 7-fluoro-N-(4-methoxyphenethyl)-N-(3-((trimethylsilyl)ethynyl)-benzyl)benzo[d]thiazol-2-amine], the inhibition at 10 µM on KARS1 and 37LR is 13.4%. Besides, the inhibition at 3 µM in the test with Raw 264.7 cells is 27%.

As for `COc1ccc(CCN(Cc2ccc3c(c2)CNC3)c2nc3cccc(F)c3s2)cc1` [Compound 29, 7-fluoro-N-(isoindolin-5-ylmethyl)-N-(4-methoxyphenethyl)benzo-[d]thiazol-2-amine], in the test with Raw264.7 cells (Mus musculus, RAW264.7), the inhibition at 1 µM was found to be 4.1%. Besides, the inhibition at 3 µM with Raw 264.7 cells turned out to be 33%.

`COc1ccc(CCN(Cc2ccc(-n3ccc(C(=O)O)c3)cc2)c2nc3cccc(F)c3s2)cc1` [Compound 34, 1-(4-(((7-fluorobenzo[d]thiazol-2-yl)(4-methoxyphenethyl)amino)-methyl)phenyl)-1H-pyrrole-3-carboxylic acid]: the inhibition at 1 µM in the test on Raw264.7 cells (Mus musculus, RAW264.7) is 99.4%. Also, the inhibition at 3 µM in the test with Raw 264.7 cells came out at 13%.

On to `C#Cc1cccc(CN(CCc2ccc(OC)cc2)c2nc3cccc(F)c3s2)c1` [Compound 9, N-(3-ethynylbenzyl)-7-fluoro-N-(4-methoxyphenethyl)benzo[d]thiazol-2-amine], for which the inhibition at 10 µM on KARS1 and 37LR turned out to be 8.5%. Besides, the inhibition at 3 µM in the test with Raw 264.7 cells was found to be 0%.

For `NC(=O)c1ccc(CCN(Cc2ccc(N3CC[C@H](C(=O)O)C3)cc2)c2nc3cccc(F)c3s2)cc1` [Compound 48, (S)-1-(4-(((4-carbamoylphenethyl)(7-fluorobenzo[d]thiazol-2-yl)amino)methyl)phenyl)pyrrolidine-3-carboxylic acid], the inhibition at 1 µM with Raw264.7 cells (Mus musculus, RAW264.7) was 36.6%.

For `COc1ccc(CCN(Cc2ccc(N3CCC(C(=O)O)CC3)cc2)c2nc3cccc(F)c3s2)cc1` [Compound 46, 1-(4-(((7-fluorobenzo[d]thiazol-2-yl)(4-methoxyphenethyl)amino)-methyl)phenyl)piperidine-4-carboxylic acid], the inhibition at 1 µM with Raw264.7 cells (Mus musculus, RAW264.7) was 90.9%.

Regarding `COc1ccc(CCN(Cc2nc3cc(C(=O)O)ccc3o2)c2nc3cccc(F)c3s2)cc1` [Compound 28, 2-(((7-fluorobenzo[d]thiazol-2-yl)(4-methoxyphenethyl)amino)-methyl)benzo[d]oxazole-5-carboxylic acid], in the test with Raw264.7 cells (Mus musculus, RAW264.7), the inhibition at 1 µM worked out at 43.2%. In addition, the inhibition at 3 µM in the test on Raw 264.7 cells turned out to be 16.4%.

The record behind these values is EP4656630A1, “NOVEL COMPOUND AS LYSYL-TRNA SYNTHETASE 1 INHIBITOR, AND USE THEREOF” (Zymedi Co., Ltd., priority 2023, dated 2024).
